# Like-named read-outs stand apart in the source and are kept apart here.
# What was measured:
# [1] = molecular target: T1, full-length GFP-tagged TRPV1 (Rattus norvegicus, UniProt O35433); assay: 3H-RTx binding to intact S. cerevisiae cells expressing GFP-tagged TRPV1; details: 37°C; for Kd: read-out: Kd of 3H-RTx binding (Hill fit)
# T1 construct: Smooth function for full-length GFP-tagged TRPV1 is a fit of the Hill equation; expressed in transfected cells; host or cells: Saccharomyces cerevisiae (intact cells)
# Experimental: To evaluate whether these constructs were competent to bind vanilloids, we initially measured the binding of [^3H]-RTx ([Szallasi and Blumberg, 1999]; [Szallasi et al., 1999]) to intact yeast cells expressing each of the constructs.
# S. cerevisiae cells overexpressing TRPV1 constructs to be used in ligand binding assays on intact cells (Figure 1E,F) were grown as for small scale expression trials. 24 hr after protein induction cells were spun down at 4000g, the supernatant was removed and the pellet resuspended in 1x PBS, normalizing OD600 to 75 for each sample, and aliquoted for storage at -80°C. ^3H-RTx binding assays on cells were performed at 37°C as previously described ([Feng et al., 2015]), but where non-specific binding of RTx was measured using cells expressing GFP alone. The binding of RTx to TRPV1 and TRPV2 in membranes (e.g. Figure 2A,B and 5C) was performed at 37°C unless otherwise stated using membranes prepared from large scale protein preparations of S. cerevisiae containing rat TRPV1 and TRPV2 with a 1D4 tag expressed using a constitutive promoter as in [Moiseenkova-Bell et al., 2008]. Data for binding of RTx to membranes was corrected for non-specific binding, determined using either excess non-radioactive ligand or heat inactivation of the protein, as previously described ([Feng et al., 2015]). The TRPV1-activating double-knot toxin (DkTx) was produced recombinantly, folded in vitro and purified as previously described ([Bae et al., 2012]). Yeast membranes were incubated with DkTx solution for 1 hr at 4°C with gentle agitation prior to undertaking RTx binding assays.
# [2] = system: TRPV2 triple mutants containing the F472S mutation; assay: Two-electrode voltage-clamp in Xenopus oocytes, TRPV2 triple mutants containing F472S; assay type: cell-based, rat; details: 100 nM RTx, +60 mV, normalized to 4 mM 2-APB
# Excerpt: (§1) To further investigate the putative vanilloid binding pocket in TRPV1, we inspected the cryo-EM structure of TRPV1, looking for residues that are located nearby to the putative RTx density (Figure 1B; regions/residues highlighted in yellow) and that differ between TRPV1 and TRPV2 channels (Figure 3—figure supplement 1; regions highlighted in magenta). […] To quantify the contribution of each of these residues to TRPV1 channel activation by RTx under our experimental conditions, we mutated each to the corresponding residue in TRPV2. We then expressed each construct in oocytes and used the two electrode voltage-clamp technique to study activation by RTx and by the non-specific TRPV channel activator 2-APB. We recorded time courses for channel activation by each agonist while stepping the membrane potential from −60 to +60 mV every 3 s from a holding potential of 0 mV using an external recording solution containing 100 mM KCl (internal K^+ concentration in a healthy oocyte is 100 mM) (Figure 3A, left). We also recorded current-voltage (I-V) relations by stepping over a wider range of voltages in the absence and presence of activators, or in the presence of ruthenium red (RR), a non-specific inhibitor of TRP channels (Figure 3A, right). […]
# [3] = molecular target: T2, TRPV2 QM (Rattus norvegicus, UniProt Q9WUD2, F472S/L507M/L510T/Q530E); assay: Single channel inside-out patch recording of TRPV2 QM in HEK293 cells; assay type: cell-based; details: 100 nM RTx, patch containing a single channel, recording of approximately 8 min
# T2 construct: expressed in transfected cells; host or cells: Xenopus oocytes (cRNA injection)
# T2 sequence (Q9WUD2 1-761 F472S/L507M/L510T/Q530E): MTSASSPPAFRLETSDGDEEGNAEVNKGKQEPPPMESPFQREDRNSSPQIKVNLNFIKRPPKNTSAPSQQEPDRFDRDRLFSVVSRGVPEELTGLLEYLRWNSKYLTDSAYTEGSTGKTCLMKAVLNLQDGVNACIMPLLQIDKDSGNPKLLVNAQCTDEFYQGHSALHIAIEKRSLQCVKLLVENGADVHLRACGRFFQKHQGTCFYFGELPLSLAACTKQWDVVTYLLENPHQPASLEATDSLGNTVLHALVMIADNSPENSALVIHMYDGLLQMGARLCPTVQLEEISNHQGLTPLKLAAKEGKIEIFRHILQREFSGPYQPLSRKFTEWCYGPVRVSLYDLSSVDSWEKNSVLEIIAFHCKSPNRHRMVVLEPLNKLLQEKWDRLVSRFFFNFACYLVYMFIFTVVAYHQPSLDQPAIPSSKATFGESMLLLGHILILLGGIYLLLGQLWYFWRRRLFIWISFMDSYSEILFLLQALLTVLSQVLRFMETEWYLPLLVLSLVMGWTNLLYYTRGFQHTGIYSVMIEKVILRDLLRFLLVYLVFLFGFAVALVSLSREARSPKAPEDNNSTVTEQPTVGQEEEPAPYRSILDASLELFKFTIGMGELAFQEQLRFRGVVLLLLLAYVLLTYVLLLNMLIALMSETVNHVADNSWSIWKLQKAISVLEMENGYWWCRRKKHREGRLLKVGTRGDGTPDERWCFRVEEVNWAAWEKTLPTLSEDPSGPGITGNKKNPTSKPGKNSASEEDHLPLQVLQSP
# [4] = molecular target: T3, TRPV1 S512F/E570Q (Rattus norvegicus, UniProt O35433, E570Q/S512F); assay: Two-electrode voltage-clamp in Xenopus oocytes, TRPV1 S512F/E570Q; assay type: cell-based; details: 100 nM RTx
# T3 construct: expressed in transfected cells; host or cells: Xenopus oocytes (cRNA injection)
# Excerpt: as §1
# T1 sequence (O35433 whole entry): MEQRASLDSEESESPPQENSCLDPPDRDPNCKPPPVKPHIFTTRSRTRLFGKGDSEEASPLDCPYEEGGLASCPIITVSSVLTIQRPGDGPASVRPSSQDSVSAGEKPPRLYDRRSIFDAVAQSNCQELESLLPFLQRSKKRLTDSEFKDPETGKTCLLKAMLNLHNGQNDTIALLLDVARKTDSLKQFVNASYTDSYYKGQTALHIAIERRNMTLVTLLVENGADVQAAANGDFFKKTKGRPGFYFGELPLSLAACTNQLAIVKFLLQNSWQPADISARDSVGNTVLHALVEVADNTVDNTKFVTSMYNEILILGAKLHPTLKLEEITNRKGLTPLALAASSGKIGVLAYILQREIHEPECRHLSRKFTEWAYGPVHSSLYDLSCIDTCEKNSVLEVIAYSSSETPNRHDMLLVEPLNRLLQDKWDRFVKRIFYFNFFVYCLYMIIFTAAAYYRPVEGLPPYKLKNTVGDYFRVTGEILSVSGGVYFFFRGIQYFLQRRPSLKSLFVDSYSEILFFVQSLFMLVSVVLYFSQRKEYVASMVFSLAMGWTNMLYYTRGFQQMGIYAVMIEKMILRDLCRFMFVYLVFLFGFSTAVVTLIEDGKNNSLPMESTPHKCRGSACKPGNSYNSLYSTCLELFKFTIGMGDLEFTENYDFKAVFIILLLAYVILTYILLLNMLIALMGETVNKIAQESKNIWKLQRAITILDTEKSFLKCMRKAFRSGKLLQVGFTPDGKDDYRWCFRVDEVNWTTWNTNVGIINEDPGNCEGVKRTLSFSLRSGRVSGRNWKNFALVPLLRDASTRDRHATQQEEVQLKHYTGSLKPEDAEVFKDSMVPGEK
# T3 sequence (O35433 whole entry S512F/E570Q): as the sequence (O35433 whole entry) above, with S512F, E570Q counted along it
structure (smiles),measurement,setting,value
"C=C(C)[C@]12C[C@@H](C)[C@@]34O[C@](Cc5ccccc5)(O[C@@H]1[C@@H]3C=C(COC(=O)Cc1ccc(O)c(OC)c1)C[C@]1(O)C(=O)C(C)=C[C@@H]41)O2 [RTx, resiniferatoxin]",Hill slope (nH),[1]; Figure 1E,0.78
same,Kd,[1]; Figure 1E,7 nM
same,Hill slope (nH),[1]; Figure 1F,0.82
same,Kd,[1]; Figure 1F,7.2 nM
same,channel activation by RTx,[2],sensitive to RTx
same,open probability (Po),[3],~1
same,channel activation by RTx,[4],retained RTx sensitivity

# — article PMC4907692, “Engineering vanilloid-sensitivity into the rat TRPV2 channel” (eLife, 2016)
